Reference: patent publication US11858894B2, “Crystalline form of 1-(5-(2,4-Difluorophenyl)-1-((3-fluorophenyl)sulfonyl)-4-methoxy-1H-pyrrol-3-yl)-n-methylmethanamine salt” (Daewoong Pharmaceutical Co., Ltd., priority 2016, dated 2024)

Tests used:
[1] = Stability confirmation test (impurity formation during storage under severe conditions, liquid chromatography); type: physicochemical
Experimental: The stability test was carried out for the crystalline forms prepared in the Examples to evaluate the degree to which impurities were formed during storage under severe conditions (moisture-proof condition and high-humidity exposure condition). The results of the stability test under the moisture-proof condition were shown in Table 2 below, and the results of the stability test under the high-humidity exposure condition were shown in Table 3 below. For the stability test, vials containing 10 mg of each sample which was precisely weighed and taken were prepared in the planned quantity, and they were stored by dividing into the moisture-proof condition (60° C. and less than 10% relative humidity) and under the high-humidity exposure condition (60° C. and 95% relative humidity). However, under the high-humidity exposure condition, a stopper of the vial was not used to keep so that the sample is in sufficient contact with a moisture in the air. At a fixed point of time after the initiation of the test, two vials per point of time were taken (number of samples per test n=2). 10 ml of methanol was added to each vial to dissolve the sample, which was then centrifuged. The resulting supernatant was analyzed using a liquid chromatography. The peak area was determined by integration for all detected peaks, and the relative peak area for the main component and the total impurity was calculated and expressed as an average value.

[2] = Solubility test in water; type: physicochemical; settings: thermodynamic from solid; deionized water, shaking and ultrasonic shaking
Experimental: For the solubility test in water, a sample of less than 10 mg was first precisely weighed and taken and placed into a vial, to which 50 μl of deionized water was added, shaking for 30 seconds and ultrasonic shaking for 1 minute were carried out, and these processes were repeated several times. The water solubility was calculated by measuring the amount of water used to dissolve all the samples.

[3] = high-humidity exposure condition (60° C., 95% relative humidity), After 1 week
[4] = high-humidity exposure condition (60° C., 95% relative humidity), After 2 weeks
[5] = high-humidity exposure condition (60° C., 95% relative humidity), After 4 weeks
[6] = high-humidity exposure condition (60° C., 95% relative humidity), Initial
[7] = moisture-proof condition (60° C., less than 10% relative humidity), After 2 weeks
[8] = moisture-proof condition (60° C., less than 10% relative humidity), After 4 weeks
[9] = moisture-proof condition (60° C., less than 10% relative humidity), Initial

| SMILES | Peak area of main component [1, 3] | Peak area of total impurities [1, 3] | Peak area of main component [1, 4] | Peak area of total impurities [1, 4] | Peak area of main component [1, 5] | Peak area of total impurities [1, 5] | Peak area of main component [1, 6] | Peak area of total impurities [1, 6] | Peak area of main component [1, 7] | Peak area of total impurities [1, 7] | Peak area of main component [1, 8] | Peak area of total impurities [1, 8] | Peak area of main component [1, 9] | Peak area of total impurities [1, 9] | solubility [2] |
| --- | --- | --- | --- | --- | --- | --- | --- | --- | --- | --- | --- | --- | --- | --- | --- |
| CNCc1cn(S(=O)(=O)c2cccc(F)c2)c(-c2ccc(F)cc2F)c1OC.O=C(O)/C=C/C(=O)O [Example 5-1, 1-(5-(2,4-difluorophenyl)-1-((3-fluorophenyl)sulfonyl)-4-methoxy-1H-pyrrol-3-yl)-N-methylmethanamine fumarate] | 99.40% | 0.60% | 99.32% | 0.68% | 99.30% | 0.70% | 99.38% | 0.62% | 99.36% | 0.64% | 99.37% | 0.63% | 99.38% | 0.62% | 1730 to 2600 µg/mL |
| CNCc1cn(S(=O)(=O)c2cccc(F)c2)c(-c2ccc(F)cc2F)c1OC.O=C(O)C(O)C(O)C(=O)O [Example 4-1, 1-(5-(2,4-difluorophenyl)-1-((3-fluorophenyl)sulfonyl)-4-methoxy-1H-pyrrol-3-yl)-N-methylmethanamine tartrate] | 99.48% | 0.52% | 99.43% | 0.57% | 99.23% | 0.77% | 99.52% | 0.48% | 99.54% | 0.46% | 99.48% | 0.52% | 99.52% | 0.48% | – |
| CNCc1cn(S(=O)(=O)c2cccc(F)c2)c(-c2ccc(F)cc2F)c1OC.Cl [Example 1-1, 1-(5-(2,4-difluorophenyl)-1-((3-fluorophenyl)sulfonyl)-4-methoxy-1H-pyrrol-3-yl)-N-methylmethanamine hydrochloride] | 99.81% | 0.19% | 99.80% | 0.20% | 99.80% | 0.20% | 99.82% | 0.18% | 99.80% | 0.19% | 99.80% | 0.20% | 99.82% | 0.18% | – |
| CNCc1cn(S(=O)(=O)c2cccc(F)c2)c(-c2ccc(F)cc2F)c1OC [Comparative Example 1, 1-(5-(2,4-difluorophenyl)-1-((3-fluorophenyl)sulfonyl)-4-methoxy-1H-pyrrol-3-yl)-N-methylmethanamine free base] | – | – | – | – | – | – | – | – | – | – | – | – | – | – | < 160 µg/mL |
| CNCc1cn(S(=O)(=O)c2cccc(F)c2)c(-c2ccc(F)cc2F)c1OC.O=C(O)CCC(=O)O [Example 3-1, 1-(5-(2,4-difluorophenyl)-1-((3-fluorophenyl)sulfonyl)-4-methoxy-1H-pyrrol-3-yl)-N-methylmethanamine succinate] | 99.56% | 0.44% | 99.53% | 0.47% | 99.47% | 0.54% | 99.55% | 0.45% | 99.61% | 0.39% | 99.55% | 0.45% | 99.55% | 0.45% | – |
